Assays:
Nucleic Acid [1] = tested on: Nucleic Acid
Description: (§1) Inhibitory concentration against DNA-bound ethidium bromide

physchem [2] = conditions: aqueous solution
Description: (§2) Compound was evaluated for quinoline pKa value in aqueous solution at 25 degree Celsius by spectrophotometry

CHO-AA8 [3] = assay: cells; conditions: Cricetulus griseus, CHO-AA8, 18 h
Description: Growth inhibition in CHO subline AA8 cells exposed for 18 hr under aerobic(air) conditions

physchem [4] = conditions: aqueous solution; remark: listed apart in the source
Description: as §2

Nucleic Acid [5] = tested on: Nucleic Acid; remark: listed apart in the source
Description: as §1

CHO-AA8 [6] = assay: cells; conditions: Cricetulus griseus, CHO-AA8, 18 h; remark: listed apart in the source
Description: Growth inhibitory activity against CHO subline AA8 cells exposed for 18 hr under aerobic conditions

Structure (SMILES): CN(C)CCCNc1c([N+](=O)[O-])cnc2ccccc12
- C50 (Nucleic Acid [1]): 5 µM
- pKa (physchem [2]): 4.43
- IC50 (CHO-AA8 [3]): 34 µM

Structure (SMILES): Cc1ccc2c(NCCCN(C)C)ccnc2c1[N+](=O)[O-]
- C50 (Nucleic Acid [1]): 4.6 µM
- pKa (physchem [4]): 5.51
- IC50 (CHO-AA8 [3]): 253 µM

Structure (SMILES): CN(C)CCCNc1ccnc2c([N+](=O)[O-])cccc12
- C50 (Nucleic Acid [1]): 1.2 µM
- pKa (physchem [4]): 6.91
- IC50 (CHO-AA8 [3]): 93 µM

Structure (SMILES): Cc1cc2nccc(NCCCN(C)C)c2cc1[N+](=O)[O-]
- C50 (Nucleic Acid [1]): 2.3 µM
- pKa (physchem [4]): 7.38
- IC50 (CHO-AA8 [3]): 28 µM

Structure (SMILES): CN(C)CCCNc1ccnc2cc([N+](=O)[O-])ccc12
- C50 (Nucleic Acid [1]): 0.9 µM
- pKa (physchem [2]): 6.77
- IC50 (CHO-AA8 [3]): 46 µM

Structure (SMILES): Cc1cnc2cccc([N+](=O)[O-])c2c1NCCCN(C)C
- C50 (Nucleic Acid [1]): 1 µM
- pKa (physchem [4]): 6.01
- IC50 (CHO-AA8 [3]): 33 µM

Structure (SMILES): COc1ccc([N+](=O)[O-])c2c(NCCCN(C)C)ccnc12
- pKa (physchem [4]): 6.76
- IC50 (CHO-AA8 [3]): 6.8 µM

Structure (SMILES): CN(C)CCCCNc1ccnc2cccc([N+](=O)[O-])c12
- C50 (Nucleic Acid [1]): 3.1 µM
- pKa (physchem [4]): 6.71
- IC50 (CHO-AA8 [3]): 9 µM

Structure (SMILES): CN(C)CCCNc1ncnc2cccc([N+](=O)[O-])c12
- C50 (Nucleic Acid [1]): 4.3 µM
- pKa (physchem [4]): 4.05
- IC50 (CHO-AA8 [3]): 82 µM

Structure (SMILES): Cc1ccc([N+](=O)[O-])c2c(NCCCN(C)C)ccnc12
- C50 (Nucleic Acid [1]): 3 µM
- pKa (physchem [4]): 6.84
- IC50 (CHO-AA8 [3]): 29 µM

Structure (SMILES): CN(C)CCCNc1cc[n+](C)c2cccc([N+](=O)[O-])c12
- C50 (Nucleic Acid [5]): 3.6 µM
- IC50 (CHO-AA8 [6]): 5.8 µM

Structure (SMILES): Cc1nc2ccccc2c(NCCCN(C)C)c1[N+](=O)[O-]
- C50 (Nucleic Acid [1]): 8.6 µM
- pKa (physchem [4]): 5.35
- IC50 (CHO-AA8 [3]): 226 µM

Structure (SMILES): CN(C)CCN(C)c1ccnc2cccc([N+](=O)[O-])c12
- C50 (Nucleic Acid [1]): 3.9 µM
- pKa (physchem [4]): 4.86
- IC50 (CHO-AA8 [3]): 95 µM

Structure (SMILES): CNc1ccc([N+](=O)[O-])c2c(NCCCN(C)C)ccnc12
- pKa (physchem [4]): 4.22
- IC50 (CHO-AA8 [6]): 98 µM

Structure (SMILES): COCC(O)Cn1ccnc1[N+](=O)[O-] (configuration not stated) [MISONIDAZOLE]
- IC50 (CHO-AA8 [3]): 12100 µM

Structure (SMILES): Cc1ccc2nccc(NCCCN(C)C)c2c1[N+](=O)[O-]
- C50 (Nucleic Acid [1]): 3.1 µM
- pKa (physchem [4]): 6.15
- IC50 (CHO-AA8 [3]): 170 µM

Structure (SMILES): CN(C)CCNc1ccnc2cccc([N+](=O)[O-])c12
- C50 (Nucleic Acid [1]): 1.5 µM
- pKa (physchem [4]): 5.77
- IC50 (CHO-AA8 [3]): 20.9 µM

Structure (SMILES): CN(C)CCCNc1ccnc2ccc([N+](=O)[O-])cc12
- C50 (Nucleic Acid [1]): 1 µM
- pKa (physchem [2]): 6.99
- IC50 (CHO-AA8 [3]): 34 µM

Structure (SMILES): Cc1c([N+](=O)[O-])ccc2c(NCCCN(C)C)ccnc12
- C50 (Nucleic Acid [1]): 2.9 µM
- pKa (physchem [4]): 6.71
- IC50 (CHO-AA8 [3]): 21 µM

Structure (SMILES): Cc1cc(NCCCN(C)C)c2c([N+](=O)[O-])cccc2n1
- C50 (Nucleic Acid [1]): 1.1 µM
- pKa (physchem [4]): 6.41
- IC50 (CHO-AA8 [3]): 6.6 µM

Structure (SMILES): CN(C)CCCNc1c2ccccc2nc2cccc([N+](=O)[O-])c12 [NITRACRINE]
- IC50 (CHO-AA8 [6]): 0.024 µM

Structure (SMILES): CN(C)CCCNc1ccnc2ccccc12
- C50 (Nucleic Acid [1]): 4.6 µM
- pKa (physchem [2]): 8.85
- IC50 (CHO-AA8 [3]): 125 µM

Structure (SMILES): CN(C)CCCNc1ccnc2cccc([N+](=O)[O-])c12
- C50 (Nucleic Acid [1]): 1.1 µM
- pKa (physchem [2]): 6.39
- IC50 (CHO-AA8 [3]): 12.4 µM

— ChEMBL document CHEMBL1125565, “Hypoxia-selective antitumor agents. 6. 4-(Alkylamino)nitroquinolines: a new class of hypoxia-selective cytotoxins” (J Med Chem, 1992)
